Results as given in patent publication US7723070B2, “Overexpression of aminoacyl-tRNA synthetases for efficient production of engineered proteins containing amino acid analogues” (California Institute of Technology, priority 2000, dated 2010).
“Also recorded” adds a separate entry of the source.

Target: T1, methionyl tRNA synthetase (MetRS) (Escherichia coli, UniProt P00959)
T1 sequence (P00959 1-548 limits assumed): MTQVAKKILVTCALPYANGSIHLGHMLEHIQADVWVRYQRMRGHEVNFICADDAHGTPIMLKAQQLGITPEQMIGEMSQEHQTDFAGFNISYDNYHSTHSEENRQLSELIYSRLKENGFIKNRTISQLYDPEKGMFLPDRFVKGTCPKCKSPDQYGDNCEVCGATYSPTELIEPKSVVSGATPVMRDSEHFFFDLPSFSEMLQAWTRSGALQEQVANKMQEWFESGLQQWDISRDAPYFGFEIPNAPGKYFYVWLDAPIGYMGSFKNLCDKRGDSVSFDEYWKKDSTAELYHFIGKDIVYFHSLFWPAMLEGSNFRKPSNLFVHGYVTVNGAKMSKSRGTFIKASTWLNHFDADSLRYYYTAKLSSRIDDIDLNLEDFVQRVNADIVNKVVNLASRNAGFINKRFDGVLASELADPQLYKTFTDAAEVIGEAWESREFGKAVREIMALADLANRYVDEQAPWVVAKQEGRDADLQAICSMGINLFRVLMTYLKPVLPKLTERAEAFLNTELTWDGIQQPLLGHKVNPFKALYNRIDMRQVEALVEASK
Assay: ATP-PPi exchange assay: activation of methionine and methionine analogues by MetRS
Type: biochemical, E. coli
Set-up: The fully active, truncated form of methionyl tRNA synthetase (MetRS) was purified from overnight cultures of JM101 cells carrying the plasmid pGG3; made in house; host or cells: E. coli JM101 carrying plasmid pGG3
Settings: for fold lower kcat/Km (less efficiently activated) than methionine: relative to methionine
Text: The fully active, truncated form of methionyl tRNA synthetase (MetRS) was purified from overnight cultures of JM101 cells carrying the plasmid pGG3. (The plasmid, which encodes the tryptic fragment of MetRS, Ghosh, G.; Brunie, S.; Schulman, L. H. J. Biol. Chem. 1991, 266, 17136-17141). The enzyme was purified by size exclusion chromotography as previously described (Mellot, P.; Mechulam, Y.; LeCorre, D.; Blanquet, S.; Fayat, G. J. Mol. Biol. 1989, 208, 429). Activation of methionine analogues by MetRS was assayed via the amino-acid-dependent ATP-PPi exchange reaction, also as previously described (Mellot, P.; Mechulam, Y.; LeCorre, D.; Blanquet, S.; Fayat, G. J. Mol. Biol. 1989, 208, 429; Blanquet, S.; Fayat, G.; Waller, J.-P. Eur. J. Biochem. 1974, 44, 343; Ghosh, G.; Pelka, H.; Schulman, L. H. Biochemistry 1990, 29, 2220). The assay, which measures the ^32P-radiolabeled ATP formed by the enzyme-catalyzed exchange of ^32P-pyrophosphate (PPi) into ATP, was conducted in 150 μl of reaction buffer (pH 7.6, 20 mM imidazole; 0.1 mM EDTA, 10 mM β-mercaptoethanol, 7 mM MgCl2, 2 mM ATP, 0.1 mg/ml BSA, and 2 mM PPi (in the form of sodium pyrophosphate with a specific activity of approximately 0.18 TBq/mole)). […] Kinetic parameters for analogue 5 were obtained with an enzyme concentration of 75 nM and analogue concentrations of 100 μM to 10 mM. Parameters for methionine were obtained by using concentrations ranging from 10 μM to 1 mM. […] Aliquots of 20 μl were removed from the reaction mixture at various time points and were quenched in 0.5 ml of a solution comprising 200 mM PPi, 7% w/v HClO4, and 3% w/v activated charcoal. The charcoal was rinsed twice with 0.5 mL of a 10 mM PPi, 0.5% HClO4 solution and was then resuspended in 0.5 mL of this solution and counted via liquid scintillation methods. Kinetic constants were calculated by nonlinear regression analysis.
The fully active, truncated form of MetRS was purified from overnight cultures of JM101 cells carrying the plasmid pGG3. The enzyme was purified by size exclusion chromotography as previously described (P. Mellot, Y. Mechulam, D. LeCorre, S. Blanquet, G. Fayat, J. Mol. Biol. 1989, 208, 429-443). Activation of methionine analogues by MetRS was assayed at 25° C. via the amino acid-dependent ATP-PPi exchange reaction, also as described in Example I (G. Ghosh, H. Pelka, L. H. Schulman, Biochemistry 1990, 29, 2220-2225). […] Kinetic parameters for analogue 5 were obtained with an enzyme concentration of 50 nM and analogue concentrations of 100 μM to 10 mM. Kinetic parameters for analogue 11 were determined using an enzyme concentration of 50 nM and analogue concentrations ranging from 750 μM to 20 mM. Kinetic parameters for analogues 4, 7, 8, and 12 were obtained with an enzyme concentration of 50 or 75 nM and analogue concentrations ranging from 5 to 70 mM. Parameters for methionine were obtained by using concentrations ranging from 10 μM to 1 mM. […] Kinetic constants were calculated by nonlinear regression analysis.
The fully active, truncated form of MetRS was purified from overnight cultures of E. coli JM101 cells carrying the plasmid pGG3 (Kim, H. Y.; Ghosh, G.; Schulman, L. H.; Brunie, S.; Jakubowski, H. Proc. Natl. Acad. Sci. USA 1993, 90, 11553-11557), by using size exclusion methods previously reported (Mellot, P.; Mechulam, Y.; LeCorre, D.; Blanquet, S.; Fayat, G. J. Mol. Biol. 1989, 208, 429-443). Purified enzyme solutions (in 10 mM phosphate, pH 6.7, 10 mM (β-mercaptoethanol) were concentrated to at least 3 μM prior to their storage in 40% glycerol at −20° C. Concentrations of enzyme stocks were determined by the Bradford method, using samples of MetRS quantified by amino acid analysis as standards.

[1] = 75 nM enzyme, 5 mM L-isomer, 20 minutes
[2] = ATP-PPi exchange, purified truncated MetRS

Compound | rate/level of PPi exchange (activation by MetRS), in words [1] | fold lower kcat/Km (less efficiently activated) than methionine [fold] | other results
C/C=C\CC(N)C(=O)O (racemic) [Analogue 4, cis-2-amino-4-hexenoic acid] | does not cause measurable exchange of PPi; also recorded: very slow exchange of PPi | – | –
C/C=C/CC(N)C(=O)O (racemic) [Analogue 5, trans-2-amino-4-hexenoic acid] | very slow exchange of PPi; also recorded: neither recognized efficiently; also recorded: slow exchange of PPi | 4700 | –
CCCCCC(N)C(=O)O (racemic) [Analogue 7, DL-2-aminoheptanoic acid] | very slow exchange of PPi | – | –
2-butynylglycine [Analogue 11] | very slow exchange of PPi; also recorded: slow exchange of PPi | 13825 | Km [2]: 38.6 mM; kcat [2]: 1.51 ± 0.5 s⁻¹
CCC[C@H](N)C(=O)O [Analogue 8, L-norvaline] | very slow exchange of PPi | – | –
C#CCCC(N)C(=O)O (racemic) [Analogue 3, DL-homopropargylglycine] | rates similar to that of norleucine (9); also recorded: several-fold lower than methionine | 500 | –
C=CCC(N)C(=O)O (stereo not shown) [Analogue 12, allylglycine] | very slow exchange of PPi | – | –
C=CCCC(N)C(=O)O (racemic) [Analogue 2, DL-2-amino-5-hexenoic acid] | rates similar to that of norleucine (9); also recorded: several-fold lower than methionine | 1850 | –
CSCC[C@H](N)C(=O)O [Analogue 1, L-methionine, reference compound] | – | – | amount of PPi exchanged at a reaction time of 20 minutes [1]: 9 mmol
CCCC[C@H](N)C(=O)O [Analogue 9, L-norleucine] | – | 1050 | –
